Patent US20130115522A1, “Manufacture of LiPO2F2” (SOLVAY SA, priority 2010, published 2013)

Assay: Solubility of LiPO2F2 (and by-product salts) in organic solvents
Assay type: physicochemical
Source text: If it is desired to isolate LiPO2F2 and Li2PO3F from any LiF, polar aprotic solvents can be applied. For example, dialkyl carbonates are suitable for this purpose. Other solvents are acetone, isopropanol, tetrahydrofurane, ethyl acetate, acetonitrile, and diethyl carbonate. If it is desired to isolate selectively LiPO2F2, propylene carbonate was identified as very suitable solvent because LiPO2F2 is soluble therein, and Li2PO3F and also LiF are not. Other very suitable solvents are diethyl carbonate, a mixture of dimethyl carbonate and propylene carbonate, acetonitrile, dimethoxyethane and acetone. The solubility of LiPO2F2 in these solvents at ambient temperature is compiled in the following table 1.
Under inert gas (nitrogen), pure LiPO2F2 was dissolved in propylene carbonate at about 20° C. such that a solution is obtained comprising about 2.75% by weight of LiPO2F2.
Under inert gas (nitrogen), pure LiPO2F2 was dissolved in the respective solvent or solvent mixture at about 20° C. such that a solution containing the amounts of dissolved LiPO2F2 given in the following table 3 were achieved. The data for solution No. 1 was taken from example 4, the data for solutions No. 2 to 6 of table 3 correspond to those of table 1.

Solubility in acetone (in words) (acetone): very low solubility
Solubility in dimethoxyethane (in words) (dimethoxyethane): at most in neglectable amounts
Solubility in dimethyl carbonate, propylene carbonate and mixtures thereof (in words) (dimethyl carbonate, propylene carbonate and mixtures thereof): at most in neglectable amounts
Solubility in propylene carbonate (in words) (propylene carbonate): are not
Structure (SMILES): [F-].[Li+] [LiF]
